What all share (assay): relative viability (nuclei count vs DMSO), 5 days (fraction); higher = more cells survive
Compound in the experiment “AZD5582 + Navitoclax”: C[C@@H](C(=O)N[C@@H](C1CCCCC1)C(=O)N2CCC[C@H]2C(=O)N[C@@H]3[C@@H](CC4=CC=CC=C34)OCC#CC#CCO[C@@H]5CC6=CC=CC=C6[C@@H]5NC(=O)[C@@H]7CCCN7C(=O)[C@H](C8CCCCC8)NC(=O)[C@H](C)NC)NC [AZD5582] + CC1(C)CCC(c2ccc(Cl)cc2)=C(CN2CCN(c3ccc(C(=O)NS(=O)(=O)c4ccc(N[C@H](CCN5CCOCC5)CSc5ccccc5)c(S(=O)(=O)C(F)(F)F)c4)cc3)CC2)C1 [Navitoclax] (partner 0.5 µM)
The method in brief:
(§1)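 Lung cancer cell lines were seeded in 1536-well plates and dosed by pin tool the next day, with either a single drug or a fixed anchor-drug dose combined with five library-drug doses (not always all listed) spaced in √10 steps. Five days later, one step fixed the cells and stained their nuclei (final 0.05% Triton X-100, 1% formaldehyde, 1 ug/ml Hoechst), and nuclei were counted on 4× images. Relative viability is the nuclei count in treated wells divided by the count in vehicle wells, and each value is the median of duplicate plates.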

Compound in the experiment “AZD5582 + Linsitinib”: C[C@@H](C(=O)N[C@@H](C1CCCCC1)C(=O)N2CCC[C@H]2C(=O)N[C@@H]3[C@@H](CC4=CC=CC=C34)OCC#CC#CCO[C@@H]5CC6=CC=CC=C6[C@@H]5NC(=O)[C@@H]7CCCN7C(=O)[C@H](C8CCCCC8)NC(=O)[C@H](C)NC)NC [AZD5582] + C[C@]1(O)C[C@@H](c2nc(-c3ccc4ccc(-c5ccccc5)nc4c3)c3c(N)nccn32)C1 [Linsitinib] (partner 1 µM)
The method in brief: as §1

Compound in the experiment “AZD5582 + Palbociclib”: C[C@@H](C(=O)N[C@@H](C1CCCCC1)C(=O)N2CCC[C@H]2C(=O)N[C@@H]3[C@@H](CC4=CC=CC=C34)OCC#CC#CCO[C@@H]5CC6=CC=CC=C6[C@@H]5NC(=O)[C@@H]7CCCN7C(=O)[C@H](C8CCCCC8)NC(=O)[C@H](C)NC)NC [AZD5582] + CC(=O)c1c(C)c2cnc(Nc3ccc(N4CCNCC4)cn3)nc2n(C2CCCC2)c1=O [Palbociclib] (partner 0.5 µM)
Put shortly:
as §1

Compound in the experiment “AZD5582 + Dasatinib”: C[C@@H](C(=O)N[C@@H](C1CCCCC1)C(=O)N2CCC[C@H]2C(=O)N[C@@H]3[C@@H](CC4=CC=CC=C34)OCC#CC#CCO[C@@H]5CC6=CC=CC=C6[C@@H]5NC(=O)[C@@H]7CCCN7C(=O)[C@H](C8CCCCC8)NC(=O)[C@H](C)NC)NC [AZD5582] + Cc1nc(Nc2ncc(C(=O)Nc3c(C)cccc3Cl)s2)cc(N2CCN(CCO)CC2)n1 [Dasatinib] (partner 0.075 µM)
Put shortly: as §1

Compound in the experiment “AZD5582 + Trametinib”: C[C@@H](C(=O)N[C@@H](C1CCCCC1)C(=O)N2CCC[C@H]2C(=O)N[C@@H]3[C@@H](CC4=CC=CC=C34)OCC#CC#CCO[C@@H]5CC6=CC=CC=C6[C@@H]5NC(=O)[C@@H]7CCCN7C(=O)[C@H](C8CCCCC8)NC(=O)[C@H](C)NC)NC [AZD5582] + CC(=O)Nc1cccc(-n2c(=O)n(C3CC3)c(=O)c3c(Nc4ccc(I)cc4F)n(C)c(=O)c(C)c32)c1 [Trametinib] (partner 0.02 µM)
The method in brief: as §1

On to NCI-H727, for which the relative viability in the experiment with AZD5582 + Navitoclax (first compound 0.001581 µM) was 0.409; with AZD5582 + Navitoclax (first compound 0.005 µM), 0.426; with AZD5582 + Navitoclax (first compound 0.01581 µM), 0.366; with AZD5582 + Navitoclax (first compound 0.05 µM), 0.483; with AZD5582 + Linsitinib (first compound 0.001581 µM) it was 0.309; in the experiment with AZD5582 + Linsitinib (first compound 0.005 µM), 0.253. For the same cell line, the relative viability in the experiment with AZD5582 + Linsitinib (first compound 0.01581 µM) was 0.465; with AZD5582 + Linsitinib (first compound 0.05 µM), 0.258; with AZD5582 + Palbociclib (first compound 0.001581 µM), 0.612; with AZD5582 + Palbociclib (first compound 0.005 µM), 0.647; with AZD5582 + Palbociclib (first compound 0.01581 µM), 0.635; with AZD5582 + Palbociclib (first compound 0.05 µM) it was 0.614. The relative viability in the experiment with AZD5582 + Dasatinib (first compound 0.001581 µM) stood at 0.317; with AZD5582 + Dasatinib (first compound 0.005 µM) it was 0.319; with AZD5582 + Dasatinib (first compound 0.01581 µM), 0.505; with AZD5582 + Dasatinib (first compound 0.05 µM) it was 0.274; in the experiment with AZD5582 + Trametinib (first compound 0.001581 µM), 0.398; in the experiment with AZD5582 + Trametinib (first compound 0.005 µM), 0.383. In addition, the relative viability amounted to 0.37 with AZD5582 + Trametinib (first compound 0.01581 µM) and 0.406 with AZD5582 + Trametinib (first compound 0.05 µM).
As for HCC-78, the relative viability with AZD5582 + Navitoclax (first compound 0.001581 µM) is 0.69; with AZD5582 + Navitoclax (first compound 0.005 µM), 0.948; in the experiment with AZD5582 + Navitoclax (first compound 0.01581 µM), 0.775; with AZD5582 + Navitoclax (first compound 0.05 µM), 0.617; in the experiment with AZD5582 + Linsitinib (first compound 0.001581 µM), 0.455; with AZD5582 + Linsitinib (first compound 0.005 µM), 0.592. In addition, the relative viability stood at 0.5 with AZD5582 + Linsitinib (first compound 0.01581 µM); 0.45 with AZD5582 + Linsitinib (first compound 0.05 µM); 0.435 in the experiment with AZD5582 + Palbociclib (first compound 0.001581 µM); 0.474 with AZD5582 + Palbociclib (first compound 0.005 µM); 0.474 with AZD5582 + Palbociclib (first compound 0.01581 µM); 0.432 with AZD5582 + Palbociclib (first compound 0.05 µM). For the same cell line, the relative viability with AZD5582 + Dasatinib (first compound 0.001581 µM) was 0.489; with AZD5582 + Dasatinib (first compound 0.005 µM), 0.392; with AZD5582 + Dasatinib (first compound 0.01581 µM), 0.375; with AZD5582 + Dasatinib (first compound 0.05 µM), 0.374; in the experiment with AZD5582 + Trametinib (first compound 0.001581 µM), 0.735; with AZD5582 + Trametinib (first compound 0.005 µM), 0.813. The relative viability in the experiment with AZD5582 + Trametinib (first compound 0.01581 µM) is 0.712; in the experiment with AZD5582 + Trametinib (first compound 0.05 µM) it was 0.534.
Regarding UMC-11, the relative viability came to 0.333 with AZD5582 + Navitoclax (first compound 0.001581 µM); 0.299 with AZD5582 + Navitoclax (first compound 0.005 µM); 0.335 with AZD5582 + Navitoclax (first compound 0.01581 µM); 0.321 with AZD5582 + Navitoclax (first compound 0.05 µM); 0.931 with AZD5582 + Linsitinib (first compound 0.001581 µM); 1.07 with AZD5582 + Linsitinib (first compound 0.005 µM). For the same cell line, the relative viability in the experiment with AZD5582 + Linsitinib (first compound 0.01581 µM) was found to be 0.96; in the experiment with AZD5582 + Linsitinib (first compound 0.05 µM) it was 1.11; with AZD5582 + Palbociclib (first compound 0.001581 µM), 0.345; with AZD5582 + Palbociclib (first compound 0.005 µM) it was 0.324; in the experiment with AZD5582 + Palbociclib (first compound 0.01581 µM), 0.394; with AZD5582 + Palbociclib (first compound 0.05 µM), 0.339. Also, the relative viability in the experiment with AZD5582 + Dasatinib (first compound 0.001581 µM) worked out at 0.424; in the experiment with AZD5582 + Dasatinib (first compound 0.005 µM), 0.455; in the experiment with AZD5582 + Dasatinib (first compound 0.01581 µM) it was 0.447; in the experiment with AZD5582 + Dasatinib (first compound 0.05 µM), 0.414; with AZD5582 + Trametinib (first compound 0.001581 µM), 0.624; in the experiment with AZD5582 + Trametinib (first compound 0.005 µM) it was 0.679. Moreover, the relative viability is 0.629 with AZD5582 + Trametinib (first compound 0.01581 µM) and 0.417 with AZD5582 + Trametinib (first compound 0.05 µM).
Turning to NCI-H2023, the relative viability with AZD5582 + Navitoclax (first compound 0.001581 µM) amounted to 0.962; with AZD5582 + Navitoclax (first compound 0.005 µM) it was 0.844; in the experiment with AZD5582 + Navitoclax (first compound 0.01581 µM) it was 1.01; in the experiment with AZD5582 + Navitoclax (first compound 0.05 µM), 0.956; in the experiment with AZD5582 + Linsitinib (first compound 0.001581 µM), 0.666; in the experiment with AZD5582 + Linsitinib (first compound 0.005 µM), 0.741. The relative viability with AZD5582 + Linsitinib (first compound 0.01581 µM) stood at 0.691; with AZD5582 + Linsitinib (first compound 0.05 µM), 0.677; with AZD5582 + Palbociclib (first compound 0.001581 µM) it was 0.35; in the experiment with AZD5582 + Palbociclib (first compound 0.005 µM) it was 0.469; with AZD5582 + Palbociclib (first compound 0.01581 µM) it was 0.359; with AZD5582 + Palbociclib (first compound 0.05 µM) it was 0.4. Besides, the relative viability in the experiment with AZD5582 + Dasatinib (first compound 0.001581 µM) was 0.521; with AZD5582 + Dasatinib (first compound 0.005 µM), 0.581; with AZD5582 + Dasatinib (first compound 0.01581 µM) it was 0.553; in the experiment with AZD5582 + Dasatinib (first compound 0.05 µM), 0.49; with AZD5582 + Trametinib (first compound 0.001581 µM), 0.421; in the experiment with AZD5582 + Trametinib (first compound 0.005 µM) it was 0.525. In addition, the results for the relative viability with AZD5582 + Trametinib (first compound 0.01581 µM) and in the experiment with AZD5582 + Trametinib (first compound 0.05 µM) were 0.595 and 0.36, respectively.

(Values after the supplement of paper PMC10307832.)
